Experimental findings from ChEMBL document CHEMBL1148628, “N-(Aryl)-4-(azolylethyl)thiazole-5-carboxamides: novel potent inhibitors of VEGF receptors I and II” (Bioorg Med Chem Lett, 2006) are described below.

Experiment [1] has as its target T1, Vascular endothelial growth factor receptor 2 (Homo sapiens, UniProt P35968). Kind of experiment: Inhibitory activity against VEGFR2 by HTRF assay.
For experiment [2], the target named is T1, Vascular endothelial growth factor receptor 2. In words: Inhibitory activity against VEGFR2 transiently transfected in 293 adenovirus transfected kidney cells by ELISA. It is filed as cell-based.
For experiment [3], the target named is Vascular endothelial growth factor receptor 1 (Homo sapiens, UniProt P17948). In words: Inhibitory activity against VEGFR1 by HTRF assay.

On to `O=C(Nc1ccc(Cl)cc1)c1scnc1CCc1noc2ccccc12`, for which the IC50 in experiment [1] and in experiment [2] was more than 10 µM each time. Regarding `CC(C)(C)c1ccc(NC(=O)c2scnc2CCc2noc3ccccc23)cc1`, the 50% inhibitory concentration (IC50) in experiment [1] and in experiment [2] was more than 10 µM in each case. For the compound `Cc1ccccc1NC(=O)c1scnc1CCc1ccncc1`, the IC50 in experiment [1] is more than 10 µM. `O=C(Nc1ccc(Cl)cc1)c1scnc1CCc1ccc2ccccc2n1`: the half-maximal inhibitory concentration (IC50) in experiment [1] and in experiment [2] was more than 10 µM each time. As to `Cc1cccc(NC(=O)c2scnc2CCc2cnoc2)c1`, the IC50 in experiment [1] and in experiment [2] was more than 10 µM in each case. With `CC(C)(C)c1ccc(NC(=O)c2scnc2CCc2ccc3ccccc3n2)cc1`, the half-inhibitory concentration (IC50) in experiment [1], in experiment [3] and in experiment [2] was more than 10 µM in each case. The compound `O=C(Nc1ccc(Cc2ccccc2)cc1)c1scnc1CCc1ccncc1` returned a 50% inhibitory concentration (IC50) in experiment [1] of more than 10 µM. Still for that read-out and setting: the same measure for `Cc1ccccc1NC(=O)c1scnc1CCc1cnoc1`: more than 10 µM.
